Consider 8 molecules from EP2776398B1, “SUBSTITUTED PYRAZOLYL-BASED UREA DERIVATIVES AS VANILLOID RECEPTOR LIGANDS” (Medifron DBT Inc., priority 2011, dated 2013).

Molecules are shown by their SMILES.

One assay deals with T1, vanilloid receptor 1 (VR1/TRPV1 receptor) (Homo sapiens, UniProt Q8NER1).
T1 construct: expressed in transfected cells; host or cells: CHO K1 cells (ECACC), stably transfected
T1 sequence (Q8NER1 whole entry): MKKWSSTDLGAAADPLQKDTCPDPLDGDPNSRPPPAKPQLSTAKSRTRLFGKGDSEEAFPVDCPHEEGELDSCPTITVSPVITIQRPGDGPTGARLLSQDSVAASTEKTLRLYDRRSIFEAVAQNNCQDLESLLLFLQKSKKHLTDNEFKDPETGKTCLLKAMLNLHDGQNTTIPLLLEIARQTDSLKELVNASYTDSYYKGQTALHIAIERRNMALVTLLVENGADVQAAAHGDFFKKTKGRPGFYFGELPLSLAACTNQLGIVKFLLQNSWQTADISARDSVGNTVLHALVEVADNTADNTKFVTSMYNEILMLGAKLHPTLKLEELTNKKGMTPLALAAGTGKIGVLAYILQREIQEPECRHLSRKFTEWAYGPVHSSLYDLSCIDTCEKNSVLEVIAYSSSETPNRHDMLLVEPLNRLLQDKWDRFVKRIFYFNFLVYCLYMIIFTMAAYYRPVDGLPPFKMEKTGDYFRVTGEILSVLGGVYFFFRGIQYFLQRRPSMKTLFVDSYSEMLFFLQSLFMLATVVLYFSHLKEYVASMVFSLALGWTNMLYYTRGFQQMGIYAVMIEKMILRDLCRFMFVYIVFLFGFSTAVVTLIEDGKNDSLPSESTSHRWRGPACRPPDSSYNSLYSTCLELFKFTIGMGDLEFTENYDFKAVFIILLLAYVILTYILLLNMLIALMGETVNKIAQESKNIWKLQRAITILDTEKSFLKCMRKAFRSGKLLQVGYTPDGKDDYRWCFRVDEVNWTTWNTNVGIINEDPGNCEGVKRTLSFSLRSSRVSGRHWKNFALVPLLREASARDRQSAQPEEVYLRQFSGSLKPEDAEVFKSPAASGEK
In words: Functional testing on vanilloid receptor 1: FLIPR Ca2+ influx assay against capsaicin (Cap) in transfected CHO K1 cells (pharmacological method II). Format: cell-based. On the set-up: key to (f) Ki (human being) [nM] Cap: agonist classification: AG = agonist. Conditions: human VR1 in CHO K1 cells; AG printed instead of a Ki.
From the text: […]
With `CC(C(=O)NCc1cc(C(C)(C)C)nn1-c1cccc(Cl)c1)c1ccc(CCO)c(F)c1` (centres unmarked) [A139, N-[[5-tert-Butyl-2-(3-chlorophenyl)-2H-pyrazol-3-yl]-methyl]-2-[3-fluoro-4-(2-hydroxy-ethyl)-phenyl]-propionamide], the “(f) Ki (human being) [nM] Cap: agonist classification” value was “AG”.

Regarding `COCCOc1ccc(NC(=O)NCc2cc(C(C)(C)C)nn2-c2cccc(Cl)c2)cc1F` [A17, 1-[[5-tert-Butyl-2-(3-chlorophenyl)-2H-pyrazol-3-yl]-methyl]-3-[3-fluoro-4-(2-methoxy-ethoxy)-phenyl]-urea], the “(f) Ki (human being) [nM] Cap: agonist classification” value is reported as “AG”.

Staying with this assay, now noted: read-out: (f) Ki (human being) [nM] Cap.
As usually defined, the Ki is a dissociation constant, usually derived from enzyme kinetics or from competition with a known ligand. Turning to `CC(C(=O)NCc1cc(C(F)(F)F)nn1-c1cc(F)cc(F)c1)c1ccc(COCCO)c(F)c1` (centres unmarked) [A126, N-[[2-(3,5-Difluoro-phenyl)-5-(trifluoromethyl)-2H-pyrazol-3-yl]-methyl]-2-[3-fluoro-4-(2-hydroxy-ethoxy-methyl)-phenyl]-propionamide], the inhibition constant (Ki) amounted to 79 nM.

For `CC(C(=O)NCc1cc(C(C)(C)C)nn1-c1cccc(Cl)c1)c1ccc(C2(O)CC2)c(F)c1` (centres unmarked) [A100, N-[[5-tert-Butyl-2-(3-chlorophenyl)-2H-pyrazol-3-yl]-methyl]-2-[3-fluoro-4-(1-hydroxy-cyclopropyl)-phenyl]-propionamide], the Ki stood at 0.7 nM.

Consider `CC(C)(C)c1cc(CNC(=O)Nc2ccc(CO)c(F)c2)n(-c2cccc(F)c2)n1` [A54, 1-[[5-tert-Butyl-2-(3-fluorophenyl)-2H-pyrazol-3-yl]-methyl]-3-[3-fluoro-4-(hydroxymethyl)-phenyl]-urea], for which the Ki turned out to be 6 nM.

On to `CC(C)(C)c1cc(CNC(=O)Nc2ccc(CO)c(F)c2)n(-c2cccc(Cl)c2)n1` [A55, 1-[[5-tert-Butyl-2-(3-chlorophenyl)-2H-pyrazol-3-yl]-methyl]-3-[3-fluoro-4-(hydroxymethyl)-phenyl]-urea], for which the Ki was determined as 3 nM.

For the molecule `Cc1cc(F)cc(-n2nc(C(F)(F)F)cc2CNC(=O)Nc2ccc(CO)c(F)c2)c1` [A77, 1-[3-Fluoro-4-(hydroxymethyl)-phenyl]-3-[[2-(3-fluoro-5-methyl-phenyl)-5-(trifluoromethyl)-2H-pyrazol-3-yl]-methyl]-urea], the Ki worked out at 19 nM.

Take `O=C(NCc1cc(C(F)(F)F)nn1-c1cccc(F)c1)Nc1ccc(COCCO)c(F)c1` [A131, 1-[3-Fluoro-4-(2-hydroxy-ethoxy-methyl)-phenyl]-3-[[2-(3-fluorophenyl)-5-(trifluoromethyl)-2H-pyrazol-3-yl]-methyl]-urea]: the Ki is 56 nM.
